# Where two headings read alike, the source gives them in different places.
# B1: Ceruloplasmine (protein, UniProt P00450 20-1065, looked up)
# Ceruloplasmin: KEKHYYIGIIETTWDYASDHGEKKLISVDTEHSNIYLQNGPDRIGRLYKKALYLQYTDETFRTTIEKPVWLGFLGPIIKAETGDKVYVHLKNLASRPYTFHSHGITYYKEHEGAIYPDNTTDFQRADDKVYPGEQYTYMLLATEEQSPGEGDGNCVTRIYHSHIDAPKDIASGLIGPLIICKKDSLDKEKEKHIDREFVVMFSVVDENFSWYLEDNIKTYCSEPEKVDKDNEDFQESNRMYSVNGYTFGSLPGLSMCAEDRVKWYLFGMGNEVDVHAAFFHGQALTNKNYRIDTINLFPATLFDAYMVAQNPGEWMLSCQNLNHLKAGLQAFFQVQECNKSSSKDNIRGKHVRHYYIAAEEIIWNYAPSGIDIFTKENLTAPGSDSAVFFEQGTTRIGGSYKKLVYREYTDASFTNRKERGPEEEHLGILGPVIWAEVGDTIRVTFHNKGAYPLSIEPIGVRFNKNNEGTYYSPNYNPQSRSVPPSASHVAPTETFTYEWTVPKEVGPTNADPVCLAKMYYSAVEPTKDIFTGLIGPMKICKKGSLHANGRQKDVDKEFYLFPTVFDENESLLLEDNIRMFTTAPDQVDKEDEDFQESNKMHSMNGFMYGNQPGLTMCKGDSVVWYLFSAGNEADVHGIYFSGNTYLWRGERRDTANLFPQTSLTLHMWPDTEGTFNVECLTTDHYTGGMKQKYTVNQCRRQSEDSTFYLGERTYYIAAVEVEWDYSPQREWEKELHHLQEQNVSNAFLDKGEFYIGSKYKKVVYRQYTDSTFRVPVERKAEEEHLGILGPQLHADVGDKVKIIFKNMATRPYSIHAHGVQTESSTVTPTLPGETLTYVWKIPERSGAGTEDSACIPWAYYSTVDQVKDLYSGLIGPLIVCRRPYLKVFNPRRKLEFALLFLVFDENESWYLDDNIKTYSDHPEKVNKDDEEFIESNKMHAINGRMFGNLQGLTMHVGDEVNWYLMGMGNEIDLHTVHFHGHSFQYKHRGVYSSDVFDIFPGTYQTLEMFPRTPGIWLLHCHVTDHIHAGMETTYTVLQNEDTKSG
# modifications: N-glycans
# notes: mixture of bi and tri- and tetra-antenary N-glycans
# Assays:
# β3GlcNAcT = β3GlcNAcT acceptor specificity; details: acceptor substrate; lactose (4) = 100%
# Description: Both enzymes, β4GalT-GalE and β3GlcNAcT, were over expressed in E. coli AD202 in a large-scale fermentor (100 L). Bacteria were cultured in 2YT medium and induced with iso-propyl-thiogalactopyranoside (IPTG) to ultimately produce 8-10 g of bacterial cell paste/L cell media. The enzymes were then released from the cells by a microfluidizer and were solubilized in Tris buffer (25 mM, pH 7.5) containing manganese chloride (10 mM) and Triton X (0.25%) to reach enzymatic activities of about 50 U/L and 115 U/L of cell culture β4GalT-GalE and β3GlcNAcT, respectively.
# chST6GalNAc-I = target: T1, chST6GalNAc-I (Gallus gallus, UniProt Q92183); assay: chST6GalNAc-I activity on small acceptor molecules; type: biochemical, chicken; details: α-D-galacto derivative as acceptor
# T1 construct: made in house; host or cells: insect cells
# Description: The inventors have previously reported the cloning, expression, and characterization of chicken ST6GalNAc-I and its use in preparative synthesis of the O-linked sialoside antigens, STn-, α(2-6)SiaT-, α(2-3)SiaT- and Di-SiaT-antigen. Blixt, O.; Allin, K.; Pereira, L.; Datta, A. and Paulson, J. C., J. Am. Chem. Soc. 2002, 124, 5739-5746. Briefly, the recombinant enzyme was expressed in insect cells and purified by CDP-sepharose affinity chromatography to generate approximately 10 U/L of cell culture.
# [1] = test system: anti-carbohydrate antibodies in sera of metastatic breast cancer patients; assay: glycan array binding of antibodies in sera of metastatic breast cancer patients; parameters: species or system human; details: sera diluted 1:25
# Description: Individual (not pooled) sera were collected from 9 patients who were diagnosed with metastatic breast cancer (MBC). Blood samples were collected before treatment, so that therapeutic intervention would not interfere with patient immune responses. One patient with breast cancer but with good prognosis (IDC, Stage 1) was also included in the study. As control, or “healthy” sera, sera from ten healthy individuals, 5 female and 5 male, with no known malignancies was collected.
# (§1) Sera were diluted 1:25 with PBS containing 3% BSA, and placed on the glycan array slide in humidified chamber at room temperature for 90 min. The glycan array slide was then rinsed gently with PBS/0.05% Tween, incubated with biotinylated goat antibody against human IgG, IgM and IgA, rinsed in PBS/0.05% Tween, and incubated with streptavidin-Alexa488 fluorescent dye. Following rinses in PBS/0.05% Tween and H2O, glycan array slides were dried and scanned using the commercial DNA array scanner. […] Signal to background was typically greater 50:1 and no background subtractions were performed. Data were plotted using MS Excel software.
# [2] = test system: serum antibodies of xenotransplant recipients; assay: glycan array binding of antibodies in sera of recipients of porcine fetal pancreas islet-like cell clusters; parameters: species or system human; details: before and 1, 6, 12 months after transplantation
# Description: In 1991-1994, several diabetic (I) patients received transplantation of porcine fetal pancreas islet-like cell clusters (ICC). See, Groth, C. G. et al. Transplantation of porcine fetal pancreas to diabetic patients, The Lancet 344: 1402-4 (1994). The inventor analyzed serum from three of these patients before transplant (t=0), 1 months after (t=1), 6 months after (t=2) and 12 months after (t=3) transplant.
# as §1, with “as needed” for “1:25”
# 2G12 = assay: glycan array binding of anti-HIV 2G12 monoclonal antibody; parameters: species or system human
# Concanavalin A = Concanavalin A (Canavalia ensiformis, UniProt P02866); details: printing times up to 5 hours
# Description: Glycan Binding Protein binding assay. Printed slides were analyzed without any further modification of the surface. […] GBP's were added at a concentration of 5-50 μg/mL in buffer (usually PBS containing 0.005-0.5% Tween-20). […] Slides were subsequently washed by successive rinses in (i) PBS-Tween (0.05%), (ii) PBS and (iii) de-ionized water, then immediately subjected to imaging.
# Image acquisition and signal processing. Fluorescence intensities were detected using a ScanArray 5000 (Perkin Elmer, Boston, Mass.) confocal scanner and image analyses were carried out using ImaGene image analysis software (BioDiscovery Inc, El Segundo, Calif.). Signal to background was typically greater than 50:1 and no background subtractions were performed.
# Binding of fluorescein-labeled concanavalin A (con A) was used as a measure of ligand coupling.
# T1 sequence (Q92183 whole entry): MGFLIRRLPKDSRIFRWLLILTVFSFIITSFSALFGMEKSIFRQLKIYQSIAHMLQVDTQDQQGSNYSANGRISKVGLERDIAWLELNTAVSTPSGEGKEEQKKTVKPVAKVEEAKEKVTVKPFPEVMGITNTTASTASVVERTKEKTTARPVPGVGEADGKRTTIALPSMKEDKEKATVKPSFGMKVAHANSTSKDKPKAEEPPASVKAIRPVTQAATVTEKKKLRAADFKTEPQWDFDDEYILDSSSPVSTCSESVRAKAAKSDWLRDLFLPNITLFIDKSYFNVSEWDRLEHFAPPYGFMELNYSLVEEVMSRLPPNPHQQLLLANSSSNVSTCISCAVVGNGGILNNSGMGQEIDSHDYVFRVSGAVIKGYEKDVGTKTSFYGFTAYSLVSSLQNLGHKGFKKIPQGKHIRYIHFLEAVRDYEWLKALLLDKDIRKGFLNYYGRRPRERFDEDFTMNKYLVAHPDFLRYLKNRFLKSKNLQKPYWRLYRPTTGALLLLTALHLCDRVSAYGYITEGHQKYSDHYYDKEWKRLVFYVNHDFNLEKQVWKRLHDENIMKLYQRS
molecule,measurement,setting,value
"OCC1O[C@@H](O)C(O)[C@@H](O)[C@@H]1O[C@@H]1OC(CO)[C@H](O)[C@H](O)C1O (stereo partly shown) [Acceptor 4, Galβ(1-4)Glc]",Relative enzyme activity (%) β(1-3)GlcNAcT-activity,β3GlcNAcT,100%
O=[N+]([O-])c1ccc(O[C@@H]2OC(CO)[C@@H](O[C@@H]3OC(CO)[C@H](O)[C@H](O)C3O)[C@H](O)C2O)cc1 (stereo partly shown) [Compound 5],Relative enzyme activity (%) β(1-3)GlcNAcT-activity,β3GlcNAcT,945%
CC(=O)N[C@H]1C(O)O[C@H](CO)[C@H](O)[C@@H]1O (stereo partly drawn) [D-GalNAc],"chST6GalNAc-I activity, cpm",chST6GalNAc-I,0 cpm
same,"chST6GalNAc-I activity, nmol/mg × min^−1",chST6GalNAc-I,0.00 nmol/mg × min^−1
"CC(=O)N[C@H]1[C@H](O[C@H]2[C@@H](O)[C@@H](CO)O[C@@H](O[C@H]3[C@H](O)[C@@H](O)C(O)O[C@@H]3CO)[C@@H]2O)O[C@H](CO)[C@@H](O)[C@@H]1O (stereo partly drawn) [LNT-2, GlcNAc-beta3-Gal-beta4-Glc-beta]",binding by / level of serum antibodies in metastatic breast cancer patients versus healthy individuals,[1],bind and higher than in the healthy individuals
Fucose-alpha2-Gal-beta3-GalNAc-beta3-Gal-alpha4-Gal-beta4-Glc [Globo-H],binding by / level of serum antibodies in metastatic breast cancer patients versus healthy individuals,[1],bind and higher than in the healthy individuals
Gal-beta3-GalNAc-beta4-[Neu5Ac-alpha3]-Gal-beta4-Glc-beta [GM1],binding by / level of serum antibodies in metastatic breast cancer patients versus healthy individuals,[1],bind and higher than in the healthy individuals
Galα1-3Galβ1-4(Fucα1-3)GlcNAcβSp [Glycan 34],reactivity of serum antibodies of xenotransplant recipients,[2],clearly exhibit an immune response
Galβ1-4(Fucα1-3)GlcNAcβSp [Glycan 65],reactivity of serum antibodies of xenotransplant recipients,[2],do not have antibodies
Galβ(1-4)GlcNAc [Acceptor 6],Relative enzyme activity (%) β(1-3)GlcNAcT-activity,β3GlcNAcT,7-8%
Manα1-2Manα1-2Manα1-3(Manα1-2Manα1-3(Manα1-2Manα1-6)Manα1-6)Manβ1-4GlcNAcβ1-4GlcNAcβSp [Glycan 145],binding of 2G12,2G12; listed as Man9,relatively weakly bound
same,binding of 2G12,2G12; listed as Man-9-N-glycans,smaller level of binding
Manα1-2Manα1-3(Manα1-2Manα1-6)ManαSp [Glycan 136],variation in maximal binding of con A,Concanavalin A,less than 10%
same,binding of 2G12,2G12,strong binding
same,Rel. spec. (relative binding activity of 2G12),2G12; 2G12 30 μg/mL pre-complexed with goat anti-human-IgG-FITC,"+++ (+++ >25,000)"
Manα1-2Manα1-6(Manα1-3)Manα1-6(Manα1-2Manα1-3)Manβ1-4GlcNAcβ1-4GlcNAcβSp [Glycan 144],binding of 2G12,2G12,strong preference
Manα1-3Manα1-6(Manα1-2Manα1-3)Manβ1-4GlcNAcβ1-4GlcNAcβSp [Glycan 140],binding of 2G12,2G12,did not support binding at all
Manα1-6(Manα1-2Manα1-3)Manα1-6(Manα1-2Manα1-3)Manβ1-4GlcNAcβ1-4GlcNAcβSp [Glycan 143],binding of 2G12,2G12,did not support binding at all
Manα1-6(Manα1-3)Manα1-6(Manα1-2Manα1-3)Manβ1-4GlcNAcβ1-4GlcNAcβSp [Glycan 142],binding of 2G12,2G12,did not support binding at all
Neu5Acα2-6GalNAcα-,binding by / level of serum antibodies in metastatic breast cancer patients versus healthy individuals,[1],significantly higher levels
Neu5Gc(2-6)GalNAc,binding by / level of serum antibodies in metastatic breast cancer patients versus healthy individuals,[1],bind
B1,binding by / level of serum antibodies in metastatic breast cancer patients versus healthy individuals,[1],bind and significantly higher levels

# Reference: US20070059769A1, “High throughput glycan microarrays” (priority 2004, published 2007)
